Assay results: patent US20220409727A1, “Metal Complexes Bearing Bisstyryl-Bipyridine Ligand and Their Use as Photosensitizer Agent in One and Two-Photon Photodynamic Therapy” (Paris Sciences et Lettres, priority 2019, published 2022)
Like-named read-outs stand apart in the source and are kept apart here.

What was measured:
[1] = tested on: mouse colon carcinoma (CT-26) cells
[2] = Luminescence lifetime measurements; format: physicochemical; details: excitation at 355 nm; for τ/ns air (Lifetime): air saturated CH3CN; for τ/ns degassed (Lifetime): degassed CH3CN
Procedure, shortened: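 Lifetimes were measured in air-saturated and degassed CH3CN solutions (absorbance 0.2 at 355 nm), excited at 355 nm by a pulsed Nd-YAG-pumped OPO. Emission was collected at right angles through a monochromator onto a photomultiplier tube.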

[3] = Singlet oxygen measurement, indirect evaluation (RNO absorbance); format: physicochemical
Procedure, shortened: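 Complex (absorbance 0.2 in air-saturated CH3CN with RNO 24 μM, imidazole 12 mM; or 0.1 in air-saturated PBS with RNO 20 μM, histidine 10 mM) irradiated for varying times. RNO bleaching (A0−A) at 420 nm (CH3CN) or 440 nm (PBS) plotted against time; slope with absorbance correction gives singlet oxygen quantum yield.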

[4] = tested on: human cervical carcinoma (HeLa) cells; experiment: (Photo-)cytotoxicity on 2D cell monolayers, resazurin assay, HeLa; format: cell-based; details: for PI (480 nm): dark vs 480 nm (10 min, 3.1 J/cm^2); for PI (540 nm): dark vs 540 nm (40 min, 9.5 J/cm^2)
Source text: Before an experiment, the cells were passaged three times.

[5] = Luminescence quantum yield measurements; format: physicochemical; parameters: key: fraction, relative to [Ru(bipy)3]Cl2 reference in CH3CN (Φem=5.9%); details: CH3CN, room temperature, excitation at 355 nm
Procedure, shortened: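 Samples in CH3CN at absorbance 0.1 at 355 nm, excited at 355 nm by an Nd-YAG-pumped OPO with emission collected at right angle onto a monochromator and CCD. Quantum yield calculated relative to [Ru(bipy)3]Cl2 in CH3CN (Φem=5.9%), correcting for absorbed light fraction, integrated emission and refractive index.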

[6] = tested on: HeLa MCTS; experiment: 3D multicellular tumor spheroids (MCTS) growth inhibition assay; format: cell-based, human; details: 20 μM, 1P (500 nm, 10 J/cm^2) or 2P (800 nm, 10 J/cm^2) irradiation on day 3
Procedure: autoclave. The hot emulsion was transferred into wells (50 μL per well) of a 96 cell culture well plate. The plates were exposed for 3 h to UV irradiation to ensure the sterility and allow the agarose solution to cool down. After this time, the agarose was overlayed with a HeLa cell suspension at a density of 3000 cells per well in 150 μL of media. The MCTS were cultivated and maintained at 37° C. in a cell culture incubator at 37° C. with 5% CO2 atmosphere. The culture media was replaced every two days. Within two-three days MCTs were formed from the cell suspension. The formation as well as integrity, diameter and volume of the MCTs was monitored by an Axio Observer Z1 (Carl Zeiss) phase contrast microscope. The volume was calculated using the following formula: V=4/3πr^3. The luminescence images along the z-axis were captured by a one-(λex=458 nm, λem=600-750 nm) or two-photon (λex=800 nm, λem=600-750 nm) excitation in the z-stack mode with a an LSM 880 (Carl Zeiss) laser scanning confocal microscope equipped with Argon and a Coherent Chameleon 2-Photon laser and a GaAsP detector.
MCTS were treated with the corresponding compounds (20 μM 1-7, 20 μM tetraphenylporphyrin H2TPP, 10 μM cisplatin, 30 μM cisplatin, 2% DMSO, v %) by replacing 50% of the media with drug supplemented media in the dark for three days. After this time, the MCTS were exposed to a two-photon irradiation (800 nm, 10 J/cm^2) with a section interval of 5 μm using a LSM 880 (Carl Zeiss) laser scanning confocal microscope equipped with a Coherent Chameleon 2-Photon laser. The cell culture media was replaced every two days. The integrity and diameter of the MCTs was monitored with an Axio Observer Z1 (Carl Zeiss) phase contrast microscope every 24 h.

[7] = dark, 4 h incubation, compounds 1-3 as chloride salts, read-out: IC50 dark
[8] = read-out: IC50 480 nm (10 min, 3.1 J/cm^2), irradiation 480 nm (10 min, 3.1 J/cm^2), compounds 1-3 as chloride salts
[9] = read-out: IC50 540 nm (40 min, 9.5 J/cm^2), irradiation 540 nm (40 min, 9.5 J/cm^2), compounds 1-3 as chloride salts

Compound	IC50 [1] [nM]	τ/ns air (Lifetime) [2] [ns]	τ/ns degassed (Lifetime) [2] [ns]	Singlet oxygen quantum yield, indirect 450 nm CH3CN ([3]; CH3CN) [%]	Singlet oxygen quantum yield, indirect 450 nm PBS [3] [%]	Singlet oxygen quantum yield, indirect 540 nm CH3CN ([3]; CH3CN) [%]	Singlet oxygen quantum yield, indirect 540 nm PBS [3] [%]	PI (480 nm) [4]	PI (540 nm) [4]	IC50 [4, 7] [nM]	IC50 [4, 8] [nM]	IC50 [4, 9] [nM]	ϕem (Luminescence Quantum Yield) [5]	singlet oxygen quantum yields in CH3CN ([3]; CH3CN, range over direct and indirect methods, 450 and 540 nm)	singlet oxygen quantum yields in an aqueous solution ([3]; aqueous solution (PBS), range over 450 and 540 nm)	volume of the MCTS after light irradiation [6]
COc1ccc(/C=C/c2ccnc(-c3cc(/C=C/c4ccc(OC)cc4)ccn3)c2)cc1.F[P-](F)(F)(F)(F)F.F[P-](F)(F)(F)(F)F.[Ru+2].c1cnc2c(c1)ccc1cccnc12.c1cnc2c(c1)ccc1cccnc12 [Compound 9, [Ru(phen)2((E,E′)-4,4′-Bis[p-methoxystyryl]-2,2′-bipyridine)][PF6]2]	1100 ± 500	193	669	82	9	79	8	>66.7	>83.3	> 100000	1500 ± 600	1200 ± 700	0.019	–	–	–
CN(C)c1ccc(/C=C/c2ccnc(-c3cc(/C=C/c4ccc(N(C)C)cc4)ccn3)c2)cc1.F[P-](F)(F)(F)(F)F.F[P-](F)(F)(F)(F)F.[Ru+2].c1ccc(-c2ccnc3c2ccc2c(-c4ccccc4)ccnc23)cc1.c1ccc(-c2ccnc3c2ccc2c(-c4ccccc4)ccnc23)cc1 [Compound 10, [Ru(4,7-Diphenyl-1,10-phenanthroline)2((E,E′)-4,4′-Bis[p-(N,N-dimethylamino)styryl]-2,2′-bipyridine)][PF6]2]	1300 ± 300	72	339	48	2	43	2	6.7	6.3	10700 ± 1400	1600 ± 300	1700 ± 400	0.006	–	–	–
COc1ccc(C=Cc2ccnc(-c3cc(C=Cc4ccc(OC)cc4)ccn3)c2)cc1.F[P-](F)(F)(F)(F)F.F[P-](F)(F)(F)(F)F.[Ru+2].c1ccc(-c2ccnc3c2ccc2c(-c4ccccc4)ccnc23)cc1.c1ccc(-c2ccnc3c2ccc2c(-c4ccccc4)ccnc23)cc1 [Compound 11, [Ru(4,7-Diphenyl-1,10-phenanthroline)2((E,E′)-4,4′-Bis[p-methoxystyryl]-2,2′-bipyridine)][PF6]2]	500 ± 200	108	679	73	7	72	5	27.5	23.6	16500 ± 800	600 ± 300	700 ± 500	0.027	–	–	–
[Ru(bipy)2((E,E′)-4,4′-Bis[p-(N,N-methoxy)styryl]-2,2′-bipyridine)][PF6]2 [Compound 7]	700 ± 400	–	542	77	11	68	10	>83.3	>66.7	> 100000	1200 ± 400	1500 ± 500	0.028	68-77%	10-11%	strongest phototoxic effect
